# Test results from patent US9192595B2, “Compounds with a skin pigmenting activity and pharmaceutical or cosmetic compositions containing them” (priority 2010, dated 2015).
# Columns and labels:
# [1] = system: Normal human scalp skin; test: Epidermal pigmentation in full-thickness skin organ culture (quantitative Masson-Fontana staining); type: cell-based
# Procedure: This experimental study on the active ingredient octatrienoic acid according to the invention was based on organ cultures of skin biopsies, which were tested in 4 groups (3 skin biopsies/well) and incubated with different concentrations of the active ingredient for 6 days.
# Normal human scalp skin was obtained from a person undergoing routine face-lift surgery, subject to their informed consent. All experiments were performed in accordance with the Declaration of Helsinki, with the approval of an ad hoc Ethical Committee.
# Biopsies 3-4 mm in size were cultured at 37° C. for 6 days in Williams' E medium (Biochrom, Cambridge, U.K.) supplemented with 100 IU mL^−1 penicillin, 10 μg mL^−1 streptomycin (Gibco, Karlsruhe, Germany), 10 μg mL^−1 insulin (Sigma, Taufkirchen, Germany), 10 ng mL^−1 hydrocortisone (Sigma) and 2 mmol L^−1 L-glutamine (Invitrogen, Paisley, UK).
# Three different concentrations of octatrienoic acid (0.1 μg/mL, 0.25 μg/mL, 0.5 μg/mL) or the reference medium were administered once, at each change of medium (i.e. every 48 hours).
# For histochemical melanin assessment, Masson-Fontana staining was applied to frozen adult human scalp skin sections. Melanin stained as brown spots and the degree of pigmentation was evaluated using the quantitative Masson-Fontana test, as described elsewhere (Ito et al., 2005). This method gives a sensitive and reliable indication of changes in melanin synthesis, as shown by standard tyrosinase expression and enzyme activity assays. (Kauser et al., 2006)
# Staining intensity was analysed in a previously-defined reference area of the epidermis using ImageJ software (National Institute of Health).
# The statistical analysis was performed using Student's two-tailed t-test for independent samples.
# [2] = system: tyrosinase mRNA; test: Tyrosinase mRNA expression by real-time RT-PCR in primary melanocyte cultures; type: cell-based, human; conditions: 24 h incubation; 40 and 55 μm; NHM LP and NHM HP; vs. Ctr; FIG. 3
# Excerpt: (§1) A second experimental study assessed the action of the compounds according to the invention on the phenomena of melanocyte differentiation in the melanogenic process, as described below with reference to the attached drawings in FIGS. 3, 4 and 5. For this purpose, octatrienoic acid (called Octa in the diagrams, for the sake of brevity) was used on foreskin primary melanocyte cultures with varying degrees of basal pigmentation to assess the following parameters: • a) mRNA and tyrosinase protein expression, using real-time RT-PCR and Western-blot methods; • b) enzymatic activity of tyrosinase by spectrophotometry; • c) Quantification of melanin genesis by spectrophotometry.
# Tyrosinase mRNA expression was assessed by real-time RT-PCR on mRNA specimens extracted from cells after 24 h of incubation with octatrienoic acid at concentrations of 40 and 55 μm.
# Forskoline (FSK), a known adenylate cyclase activator capable of promoting melanin synthesis, was used as a control for comparison with the activity of octatrienoic acid.
# For these columns, *=p<0.01 vs. Ctr, **=p<0.001 vs. Ctr, and $=p<0.05 vs. Ctr.
# [3] = system: tyrosinase protein; test: Western blot analysis of tyrosinase protein expression in primary melanocyte cultures; type: cell-based, human; conditions: 72 h; same doses (40 and 55); Western blot on protein extracts
# Excerpt: as §1
# [4] = system: tyrosinase; test: Tyrosinase enzymatic activity by spectrophotometry on melanocyte cell lysates; type: cell-based, human; conditions: 72 h; 40 and 55 μM; NHM LP and NHM HP; p<0.05 vs. Ctr; FIG. 4
# Excerpt: as §1
# The activity of tyrosinase was evaluated by spectrophotometry on cell lysates derived from specimens incubated for 72 h with octatrienoic acid at concentrations of 40 and 55 μM, vs. control culture.
# For these columns, *=p<0.05 vs. Ctr.
# [5] = system: foreskin primary melanocyte cultures; test: Intracellular melanin content by spectrophotometry in melanocyte cell lysates; type: cell-based, human; conditions: 72 h; 40 and 55 μM; NHM LP and NHM HP; vs. Ctr; FIG. 5
# Excerpt: as §1
# In FIG. 5, *=p<0.05 vs. Ctr, **=p<0.01 vs. Ctr, $=p<0.001 vs. ctr.
smiles,measurement,setting,value
C/C=C/C=C/C=C/C(=O)O [octatrienoic acid],intensity of Masson-Fontana staining,"[1]; day 6, each dose (0.1, 0.25, 0.5 μg/mL) by comparison with the medium alone, FIG. 1",marked increase
same,pigmentation in the basal layer of the epidermis,"[1]; day 6, each dose administered, microphotographs x200, FIG. 2",increased pigmentation
same,skin pigmentation,"[1]; skin culture, all three doses tested (0.1, 0.25, 0.5 μg/mL), 6 days",increased the skin pigmentation
same,"tyrosinase mRNA expression (Rel tyr mRNA expression, fold change)",[2],significant induction
same,melanogenic enzyme (tyrosinase) protein expression,[3],induced melanogenic enzyme protein expression
same,"tyrosinase enzymatic activity, % of the Ctr",[4],significant increase
same,quantity of intracellular melanins,[5],significant induction
